Laboratory results as given in patent US9676715B2, “Bis-indolic derivatives, a process for preparing the same and their uses as a drug” (UNIVERSITE JOSEPH FOURIER, priority 2011, dated 2017).

Tested on: Staphylococcus aureus K2378 (overexpresses the efflux pump NorA from a multicopy plasmid)
Test: Efflux pump inhibition assay with sub-inhibitory ciprofloxacin
Format: cell-based
Conditions: S. aureus K2378; in the presence of ciprofloxacin 0.5 mg/L
Procedure: The efflux pump inhibition potential of the bis-indolic derivatives was tested using two steps.
The following experimental protocol was used: indolic derivatives (initially solubilised in DMSO at 10 mg/mL) were dispensed in a 96-wells microplate by two fold serial dilutions in Muller-Hinton medium (MH, Bio Rad) using a Biomek 2000 (Beckman) handling robot. 100 μL of the bacterial inoculum (an overnight culture at 37° C. in 5 mL MH diluted 100-fold) was then added in each well. The total volume was 200 μL in each well and the final bacteria concentration 10^6 CFU/mL (CFU: colony forming unit). The highest final indolic derivative concentration was 128 mg/L. Growth was assayed with a microplate reader by monitoring absorption at 620 nm after 1, 2, 5, 7 and 24 h incubation at 37° C. In addition, the plates were read visually after 24 hours incubation. Cultures containing 5 μL DMSO were used as growth controls. In addition, two controls containing a sub-inhibitory or a inhibitory antibiotic concentration for the tested strain were performed. The antibiotics used were ampicillin (0.5 and 32 μg/mL) for E. coli, kanamycin (0.5 and 16 μg/mL) for S. aureus ATCC 25923, ciprofloxacin (4 and 64 mg/L) for S. aureus 1199B, ciprofloxacin (0.5 and 2 mg/L) for S. aureus K2378. All experiments were performed in duplicate.
Efflux pump inhibition assays were then performed against resistant Staphylococcus aureus strains SA 1199B and SA K2378 for bis-indolic derivatives. […] The minimal inhibitory concentration (MIC) of the bis-indolic compound allowing a complete inhibition of the bacterial growth in the presence of ciprofloxacin was determined.

Cn1cc(C(=O)NC(CNC(=O)OC(C)(C)C)c2c[nH]c3ccc(Br)cc23)c2cc(Br)ccc21 (stereo not shown) [Compound 7, tert-Butyl (2-(5-bromo-1-methyl-1H-indole-3-carboxamido)-2-(5-bromo-1H-indol-3-yl)ethyl) carbamate]
MIC, mg/L (Ciprofloxacin concentration, mg/L): 0.125 (0.5) mg/L
